Assay results: publication PMC10692163, “Structure-based discovery of novel P-glycoprotein inhibitors targeting the nucleotide binding domains” (Scientific Reports, 2023)
Read-outs that look alike come from different tables or passages of the source.

Tests used:
[1] = system: P-gp nucleotide binding domain; details: Table S1, supplement reference list, cited from earlier work
P-gp [2] = target: T1, P-gp (Homo sapiens, UniProt P08183); set-up: method as in PMID 1356264, PMID 7911680, PMID 7772017, PMID 11121420; details: read-out: Binding affinity for ATP to P-gp; cited from earlier work
T1 sequence (P08183 whole entry): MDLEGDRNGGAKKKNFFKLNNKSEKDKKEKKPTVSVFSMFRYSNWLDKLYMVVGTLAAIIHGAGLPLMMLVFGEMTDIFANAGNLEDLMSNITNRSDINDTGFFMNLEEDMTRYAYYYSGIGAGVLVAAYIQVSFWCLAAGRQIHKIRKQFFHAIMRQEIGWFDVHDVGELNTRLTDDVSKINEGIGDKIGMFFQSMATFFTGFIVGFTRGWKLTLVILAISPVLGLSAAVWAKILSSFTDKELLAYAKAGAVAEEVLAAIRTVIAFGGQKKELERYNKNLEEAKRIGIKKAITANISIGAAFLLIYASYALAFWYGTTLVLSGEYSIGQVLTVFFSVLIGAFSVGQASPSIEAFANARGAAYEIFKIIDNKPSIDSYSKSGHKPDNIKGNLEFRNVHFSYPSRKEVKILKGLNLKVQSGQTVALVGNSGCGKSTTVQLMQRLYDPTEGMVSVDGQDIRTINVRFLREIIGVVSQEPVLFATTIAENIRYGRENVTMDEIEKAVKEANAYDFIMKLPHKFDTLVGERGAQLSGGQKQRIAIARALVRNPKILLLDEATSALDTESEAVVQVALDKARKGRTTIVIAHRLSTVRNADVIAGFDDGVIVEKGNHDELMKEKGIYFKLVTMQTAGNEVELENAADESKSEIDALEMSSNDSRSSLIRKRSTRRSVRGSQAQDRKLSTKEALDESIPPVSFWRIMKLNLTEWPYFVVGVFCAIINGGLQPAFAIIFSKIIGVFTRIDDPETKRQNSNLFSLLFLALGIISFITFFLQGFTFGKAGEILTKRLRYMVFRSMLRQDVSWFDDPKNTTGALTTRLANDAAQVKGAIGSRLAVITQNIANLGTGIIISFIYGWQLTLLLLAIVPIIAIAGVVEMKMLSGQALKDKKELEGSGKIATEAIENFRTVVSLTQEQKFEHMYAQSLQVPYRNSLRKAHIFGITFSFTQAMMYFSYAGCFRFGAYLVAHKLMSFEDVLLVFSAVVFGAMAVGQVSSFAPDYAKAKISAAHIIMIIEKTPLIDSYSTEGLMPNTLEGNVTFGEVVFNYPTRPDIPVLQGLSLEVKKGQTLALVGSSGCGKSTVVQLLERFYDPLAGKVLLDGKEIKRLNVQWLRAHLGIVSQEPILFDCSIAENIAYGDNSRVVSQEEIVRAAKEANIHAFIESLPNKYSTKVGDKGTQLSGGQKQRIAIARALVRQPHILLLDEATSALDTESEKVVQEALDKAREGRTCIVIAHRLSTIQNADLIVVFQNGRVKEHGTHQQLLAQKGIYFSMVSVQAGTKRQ

P-gp [3] = target: T1, P-gp; experiment: Inhibition of verapamil-stimulated sensitive ATPase activity (ATP consumption) in P-gp expressing Sf9 vesicles; assay type: biochemical; set-up: purchased GenoMembrane Co., Ltd (Kanagawa, Japan); host or cells: Sf9 insect cells infected with baculovirus; purified plasma membrane vesicles; details: for IC50: 50 µM verapamil
Description: P-gp-mediated drug transport across membranes is driven by energy derived from hydrolysis of ATP. It is, therefore, possible to evaluate drug binding to P-gp by determining the ATPase activity. The method was modified from the procedure reported by Sarkadi et al.[64]. Briefly, solutions of test compounds and positive and negative controls in a reaction medium containing 50 mM MOPS-Tris (pH 7.4), 0.1 mM EGTA, 2 mM DDT, 50 mM KCl, 5 mM sodium azide, and 1 mM ouabain were incubated on ice in a 96 well plate. Then P-gp containing membrane vesicles to a final concentration of 0.5 mg/ml were added on ice to each well. […] Then, the ATPase reaction was started by the addition of MgATP to a final concentration of 5 mM and the plates with vesicles were incubated at 37 ^∘ C for 60 min. The reaction was stopped by the addition of a 10% SDS solution and the amount of inorganic phosphate was determined immediately by addition of a coloring solution containing final concentrations of 8 mM ascorbic acid, 10 mM zinc acetate, and 7 mM ammonium molybdate. The wells were then incubated at 37 ^∘ C for 20 min and the absorbance was scanned at wave lengths from 630 to 850 nm, and 740 nm was used for calculation of ATP consumption based on a phosphate standard curve freshly made with each experiment. To estimate sensitive ATPase activity mediated by P-gp, all experiments were conducted with no compound controls (2% DMSO), positive controls and background controls in which no stop solution was added, all in the absence and presence of 500 µM vanadate. The absorbance measured for a test condition was converted to nmol inorganic phosphate and normalized for reaction time and protein amount. The sensitive ATPase activity was then obtained by subtracting the inorganic phosphate generated in the presence of 500 µM vanadate at otherwise similar conditions.
(§1) Calcein fluorescence in arbitrary unit (a.u) corrected for background signal, which was the signal obtained from the cells incubated with HBSS ^7.4+ or HBSS ^5.5+ without calcein-AM, was plotted as a function of time and slopes (denoted m below) were obtained by linear regression. The increase in fluorescent calcein is a surrogate marker of increased P-gp inhibition. The slope from curves of fluorescence as a function of time for a compound ( mcompound ) was normalized to the slope of fluorescence in cells exposed to HBSS ^7.4+ or HBSS ^5.5+ only (referred as control, mcontrol ).

P-gp [4] = target: T1, P-gp; experiment: Calcein-AM efflux assay in MDCKII MDR1 cells; assay type: cell-based; set-up: host or cells: MDCKII MDR1 cells
Description: Calcein-AM efflux experiments were performed on MDCKII MDR1 cells, which were seeded on black 96-well microplates. Before the experiments, media was removed from the wells and 50 µL pre-warmed HBSS ^7.4+ was added. After a 15 min incubation period, the HBSS ^7.4+ buffer was removed and 50 µL of solution containing P-gp inhibitor or test compound dissolved in HBSS ^7.4+ or HBSS ^5.5+ were added to the individual wells, followed by addition of 50 µL 10.0 µM calcein-AM giving a final calcein-AM concentration of 5.0 µM. Calcein-AM diffuses into the cell where it is either hydrolysed to a membrane-impermeable fluorescent calcein dye or extruded from the cell by P-gp[63]. Inhibiting P-gp increases the amount of calcein in the cell and a higher amount is hydrolysed to calcein, thus the fluorescence measured is increased. The highest concentration of each compound was added to a cell-containing well in the absence of calcein-AM to investigate if compounds were fluorescent themselves.
as §1

[5] = Sf9 vesicles expressing human P-gp, 5 mM MgATP, 60 min, 37 °C, read-out: ATP assay IC50

**Q.** With `O=c1cc(-c2ccccc2)oc2cc(O)cc(O)c12` [Chrysin] as the compound, how does the “Class (known P-gp NBD inhibitor)” value ([1]; ref [1]) read?
**A.** The value was “Marginal”.

**Q.** For `C=C(C)[C@H]1Cc2c(ccc3c2O[C@@H]2COc4cc(OC)c(OC)cc4[C@@H]2C3=O)O1` [Rotenone], which “Class (known P-gp NBD inhibitor)” value ([1]; ref [1]) is on record?
**A.** The value was “Active”.

**Q.** With `Nc1ncnc2c1ncn2[C@@H]1O[C@H](COP(=O)(O)OP(=O)(O)OP(=O)(O)O)[C@@H](O)[C@H]1O` [ATP] as the compound, how does the Kd (P-gp [2]) read?
**A.** Its Kd is 300 to 800 µM.

**Q.** Which “Class (known P-gp NBD inhibitor)” value ([1]; ref [4]) does the source give for `O=c1c(O)c(-c2ccccc2)oc2cc(O)cc(O)c12` [Galangin] here?
**A.** Its value is “Marginal”.

**Q.** Which “Class (known P-gp NBD inhibitor)” value ([1]; ref [1]) does the source give for `Oc1cc(O)c2c(c1)O[C@H](c1cc(O)c(O)c(O)c1)[C@H](O)C2` [Epigallocatechin] here?
**A.** The value was “Marginal”.

**Q.** Which results are given for `COc1cc2c(cc1OC)CN(CCc1ccc(NC(=O)c3cc(OC)c(OC)cc3NC(=O)c3cnc4ccccc4c3)cc1)CC2` [Tariquidar]?
**A.** Effect on verapamil-stimulated sensitive P-gp ATPase activity (P-gp [3]; 1 µM Tariquidar plus 50 µM verapamil): reduced to the background buffer level; IC50 (P-gp [3]; [5]): 0.11 µM

**Q.** For `C=C(CO)C1Cc2c(ccc3c(=O)c4c(oc23)COc2cc(OC)c(OC)cc2-4)O1` (centres unmarked) [6a,12a,-Dehydroamorphigenin], which “Class (known P-gp NBD inhibitor)” value ([1]; ref [1]) is on record?
**A.** Its value is “Marginal”.

**Q.** With `C=C(CO)[C@H]1Cc2c(ccc3c2O[C@@H]2COc4cc(OC)c(OC)cc4[C@@H]2C3=O)O1` [Amorphigenin] as the compound, how does the “Class (known P-gp NBD inhibitor)” value ([1]; ref [1]) read?
**A.** Its value is “Marginal”.

**Q.** With Mitragynine as the compound, how does the “Class (known P-gp NBD inhibitor)” value ([1]; ref [6]) read?
**A.** Its value is “Marginal”.

**Q.** For `Cn1cnnc1CC(NS(=O)(=O)N1CCC(C(C)(C)C)CC1)C(=O)O` (centres unmarked) [compound 10], which IC50 (P-gp [4]; MDCKII MDR1 cells, extracellular pH 5.5, 5.0 µM calcein-AM, read-out: Calcein-AM, pH 5.5 IC50) is on record?
**A.** Its IC50 is 127 µM.

**Q.** What about the IC50 (P-gp [4]; MDCKII MDR1 cells, extracellular pH 7.4, 5.0 µM calcein-AM, read-out: Calcein-AM, pH 7.4 IC50) of the same compound?
**A.** Its IC50 is 299 µM.

**Q.** What about the “Ability to inhibit calcein-AM efflux” value (P-gp [4]; at both pH 5.5 and pH 7.4) of the same compound?
**A.** The value was “ability to inhibit calcein-AM efflux at both pH 5.5 and pH 7.4”.

**Q.** And the “Calcein-AM, pH 5.5 LogIC50” value (P-gp [4]; log of IC50 in µM, extracellular pH 5.5)?
**A.** The value was 2.10.

**Q.** And the IC50 (P-gp [4]; log of IC50 in µM, extracellular pH 7.4, read-out: Calcein-AM, pH 7.4 Log IC50 (converted))?
**A.** The IC50 was 302 µM.

**Q.** And the IC50 (P-gp [3]; [5])?
**A.** The IC50 was 332 µM.

**Q.** What about the IC50 (P-gp [3]; log of IC50 in µM, Sf9 vesicles, read-out: ATP assay Log IC50 (converted)) of the same compound?
**A.** The IC50 was 331 µM.

**Q.** Which “Class (known P-gp NBD inhibitor)” value ([1]; ref [1]) does the source give for `C=C(CO)[C@H]1Cc2c(ccc3c2O[C@@H]2COc4cc(OC)c(OC)cc4[C@]2(O)C3=O)O1` [12a-Hydroxyamorphigenin] here?
**A.** Its value is “Marginal”.

**Q.** With `O=c1c(O)c(-c2ccccc2)oc2ccccc12` [3OH-flavone] as the compound, how does the “Class (known P-gp NBD inhibitor)” value ([1]; ref [4]) read?
**A.** Its value is “Marginal”.

**Q.** For `O=c1c(O)c(-c2ccc(O)cc2)oc2cc(O)cc(O)c12` [kaempferol], which “Class (known P-gp NBD inhibitor)” value ([1]; ref [4]) is on record?
**A.** Its value is “Marginal”.

**Q.** For `COc1ccc(-c2oc3cc(O)cc(O)c3c(=O)c2O)cc1` [kaempferide], which “Class (known P-gp NBD inhibitor)” value ([1]; ref [4]) is on record?
**A.** The value was “Marginal”.

**Q.** With `O=C(O[C@@H]1Cc2c(O)cc(O)cc2O[C@@H]1c1cc(O)c(O)c(O)c1)c1cc(O)c(O)c(O)c1` [Epigallocatechingallate (EGCG), Epigallocatechingallate] as the compound, how does the “Class (known P-gp NBD inhibitor)” value ([1]; ref [3]) read?
**A.** Its value is “Active”.

**Q.** Which “Class (known P-gp NBD inhibitor)” value ([1]; ref [5]) does the source give for `Oc1cc(O)c2c(c1)O[C@H](c1ccc(O)c(O)c1)[C@H](O)C2` [Epicatechin] here?
**A.** The value was “Marginal”.

**Q.** For `O=c1cc(-c2ccc(O)cc2)oc2cc(O)cc(O)c12` [Apigenin], which “Class (known P-gp NBD inhibitor)” value ([1]; ref [4]) is on record?
**A.** The value was “Marginal”.

**Q.** Which “Class (known P-gp NBD inhibitor)” value ([1]; ref [4]) does the source give for `COc1cc(C2Oc3cc([C@H]4Oc5cc(O)cc(O)c5C(=O)[C@@H]4O)ccc3OC2CO)ccc1O` (some centres unmarked) [Silybin] here?
**A.** The value was “Marginal”.

**Q.** Which “Class (known P-gp NBD inhibitor)” value ([1]; ref [2]) does the source give for `COc1ccc(-c2coc3cc(O)cc(O)c3c2=O)cc1` [Biochanin A] here?
**A.** The value was “Active”.
